The values below come from patent EP0316592A2, “3'-Fluoro-2',3'-dideoxyuridine, and its therapeutic application” (Stichting REGA V.Z.W., priority 1987, dated 1989).

Where two headings read alike, the source gives them in different places. Bounds are passed on as bounds.

Assay [1] has as its system CEM. As to the kind of experiment: Cytostatic effect (cell proliferation, Coulter count). It is filed as cell-based. As to conditions: Homo sapiens, CCRF-CEM; cell number reduced by 50%, 68-72 hours; read-out: ID50 CEM. The protocol: (§1) Raji/0 cells and Raji/TK⁻ (a thymidine (dThd) kinasedeficient mutant cell line derived from wild-type Raji/0 cells, were grown in 75 cm² plastic tissue culture flasks (International Medical, Brussels, Belgium), in Eagle's minimal essential medium, supplemented with 10% (v/v) inactivated foetal calf serum (Gibco, Glasgow, Scotland, U.K.), 2 mM L-glutamine (Flow Laboratories, Irvine, Scotland, U.K.) and 1% THM (5 mM Tes, 7.5 mM Hepes and 5 mM (MOPS) buffer ([…]). The Raji/0 and Raji/TK⁻ cells were characterized according to J. Balzarini et al (Biochem. Pharmacol. 31, 1089-1095 (1982)). Molt/4F, CEM and H9 cells were grown in Eagle's minimal essential medium, supplemented with 10% (v/v) inactivated foetal calf serum and 2 mM L-glutamine. MT4 cells were cultivated in RPMI 1640 medium (Gibco) containing 20 mM Hepes buffer, 10% (v/v) inactivated foetal calf serum (Gibco) and 2 mM L-glutamine (Flow Laboratories).
(§2) All assays were performed in flat bottom Microtest III Plates (96 wells) (Falcon) as previously described by E. De Clercq et al (Mol. Pharmacol. 19, 321-330 (1981)). Briefly, the cells were suspended in growth medium and added to the microplate wells at a density of 7.5 x 10⁴ cells/well (200 µ1) in the presence of varying concentrations of the test compounds. The cells were then allowed to proliferate for 68-72 hours at 37°C in a humidified, CO₂-controlled atmosphere. At the end of the incubation period, the cells were counted with a Coulter Counter (Coulter Electronics Ltd., Harpenden Herts, U.K.). The 50% inhibitory dose (ID₅₀) was defined as the concentration of compound that reduced the number of cells by 50%.

Assay [2] deals with Raji/0. Described as above. It is filed as cell-based. As to conditions: Homo sapiens, cell number reduced by 50%, 68-72 hours, read-out: ID50 Raji/0. The protocol:
as §1, §2

For assay [3], the system named is Raji/TK-. Described as above. It is filed as cell-based. Particulars: Homo sapiens, cell number reduced by 50%, 68-72 hours, read-out: ID50 Raji/TK-. The protocol: as §1, §2
The test system of assay [4] is H9. The description is as above. It is filed as cell-based. Particulars: Homo sapiens, cell number reduced by 50%, 68-72 hours, read-out: ID50 H9. The protocol: as §1, §2
The test system of assay [5] is Molt/4F. The assay is described as above. Type of assay: cell-based. Particulars: Homo sapiens, cell number reduced by 50%, 68-72 hours, read-out: ID50 Molt/4F. The protocol: as §1, §2
In assay [6] the test system is MT4. The assay is described as above. Type of assay: cell-based. As to conditions: Homo sapiens, cell number reduced by 50%, 68-72 hours, read-out: ID50 MT4. The protocol:
as §1, §2

In assay [7] the test system is Moloney murine sarcoma virus (MSV). As to the kind of experiment: Inhibition of transformation of C3H cells by MSV. It is filed as cell-based. As to conditions: for EC50: Moloney murine sarcoma virus, 144 h, 50% reduction of transformation of C3H cells by MSV, 6 days, read-out: MSV-induced cyto-pathogenicity ED50; for MSV-induced cyto-pathogenicity S.I.: Selectivity index or ratio of CD50 to ED50, C3H cells. The procedure: Moloney murine sarcoma virus (MSV) was prepared from tumors induced by in vivo infection of 10 day-old NMRI mice according to the procedure described by De Clercq et al (Proc. Soc. Exp. Biol. Med. 137, 590-594 (1971)).
ddUrd and the substituted pymiridine 2′,3′-dideoxynucleoside analogues were examined for their inhibitory effect on the transformation of mouse embryo C3H fibroblasts by Moloney murine sarcoma virus (MSV).
C3H cells were seeded at 20,000 cells per ml into wells of Costar Tissue Culture Cluster plates (48 wells per plate) and grown to confluency. Cell cultures were then infected by 150 foci-forming units of MSV during 90 min, whereafter the culture medium was replaced by 1 ml fresh medium containing different concentrations of the test compound. After 6 days, the transformation of the cell cultures was examined microscopically.

The test system of assay [8] is human B- and T-cell lines. As to the kind of experiment: Cytostatic effect, pooled over several cell lines. Particulars: for IC50: read-out: ID50 (the source's name). Type of assay: cell-based. The protocol:
as §2, with “Clercq” left out, “10^4” for “10⁴”, “μ1)” for “µ1)”, “CO2-controlled” for “CO₂-controlled”, “U.K.).” for “U.K.). The 50% inhibitory dose (ID₅₀) was defined as the concentration of compound that reduced the number of cells by 50%.”

Assay [9] concerns the target T1, Molt/4F dCyd kinase (Homo sapiens, UniProt P27707).
T1 construct: endogenous in cells; host or cells: Molt/4F cells (sonicated extract, 30-70% ammonium sulfate fraction, dialyzed)
As to the kind of experiment: Inhibition of dCyd kinase (Lineweaver-Burk). Type of assay: biochemical. As to conditions: for Type of inhibition: with respect to dCyd. The protocol:
ddUrd and the 3′-fluoro- and 3′-azido-substituted pyrimidine 2′,3′-dideoxynucleoside analogues were evaluated for their inhibitory effect against dThd and dCyd kinase.
dThd kinase and dCyd kinase were prepared from exponen tially growing Molt/4F cells, which were first washed (2x) with phosphate-buffered saline at 4° and then homogenized by sonication. The suspensions were clarified by centrifugation at 25,000-27,000 x g for 30 min. The 30-70% (NH₄)₂SO₄ precipitate of the supernatant was resuspended in buffer containing 10 uM potassium phosphate, pH 7.5, 10 mM β-mercaptoethanol and 0.1 M KCl, dialyzed against the same buffer, and used for the dThd kinase and the dCyd kinase assays. In these experiments, (2-¹⁴C)dThd and (U-¹⁴C)dCyd served as the radiolabelled substrates. The apparent Km and Ki values were derived from Lineweaver-Burk plots, using a linear regression analysis program. The assay procedures have been described in detail (J. Balzarini et al, (1983) and J. Balzarini et al, Biochem. Pharmacol. 31, 3673-3682 (1982)).

[10] abbreviates: Homo sapiens, CEM and Molt/4F cells, range over both compounds and both cell lines.
The mark [11] stands for this setting: Homo sapiens, Raji cells, range over both compounds.

T1 sequence (P27707 whole entry): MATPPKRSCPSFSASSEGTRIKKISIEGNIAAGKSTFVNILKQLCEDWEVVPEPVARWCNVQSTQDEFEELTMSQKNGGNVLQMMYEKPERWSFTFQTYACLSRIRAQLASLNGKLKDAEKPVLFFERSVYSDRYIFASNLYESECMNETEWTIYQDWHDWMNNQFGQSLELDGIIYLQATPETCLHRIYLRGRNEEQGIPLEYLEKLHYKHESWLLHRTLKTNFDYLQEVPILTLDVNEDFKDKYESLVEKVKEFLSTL

In the case of `CCc1cn([C@H]2C[C@H](N=[N+]=[N-])[C@@H](CO)O2)c(=O)[nH]c1=O` [AzddEtUrd, 3′-azido-2′,3′-dideoxy-5-ethyluridine], the IC50 in assay [1] is more than 1000 µM; in [2], more than 1000 µM; in assay [3] it was more than 1000 µM; in assay [4], more than 1000 µM; in assay [5], more than 1000 µM; in assay [6], 160 µM. In addition, the EC50 in assay [7] is more than 200 µM.
In the case of `Nc1ccn([C@H]2C[C@H](F)[C@@H](CO)O2)c(=O)n1` [FddCyd, 3′-fluoro-2′,3′-dideoxycytidine], the IC50 in assay [1] was 7 µM; in assay [2] it was 95 µM; in [3], 118 µM; in [4] it was more than 1000 µM; in assay [5], 24 µM; in [6], more than 1000 µM. The IC50 in [8] (setting [10]) was in the range of 6 to 24 µM; in assay [8] (setting [11]) it was 23 to 95 µM. Also, the EC50 in [7] was found to be 284 µM. For the same compound, in [7], the “MSV-induced cyto-pathogenicity S.I.” value is more than 1.2. The Ki/Km in [9] (Km 5.2 to 6.4 µM) is listed as 63. In addition, the Ki in assay [9] (substrate (U-14C)dCyd) amounted to 360 µM. Further, the Type of inhibition result in [9] is reported as “competitive”.
Regarding `Nc1ccn([C@H]2CC[C@@H](CO)O2)c(=O)n1` [ddCyd, 2′,3′-Dideoxycytidine], the IC50 in assay [1] is 6 µM; in [2] it was 23 µM; in assay [3] it was 28 µM; in assay [4] it was 243 µM; in assay [5], 7 µM; in assay [6] it was not below 1000 µM. The IC50 in assay [8] (setting [10]) fell in the range of 6 to 24 µM; in [8] (setting [11]), 23 to 95 µM. For the same compound, the EC50 in assay [7] was 25 µM. Also, the “MSV-induced cyto-pathogenicity S.I.” value in assay [7] is more than 16. Besides, in [9], the Type of inhibition result is on record as “competitive”.
`CCc1cn([C@H]2C[C@H](F)[C@@H](CO)O2)c(=O)[nH]c1=O` [FddEtUrd, 3′-fluoro-2′,3′-dideoxy-5-ethyluridine]: the IC50 in [1], in assay [2], in [3], in assay [4], in assay [5] and in [6] was more than 1000 µM in each case. The EC50 in assay [7] was more than 400 µM.
With `[N-]=[N+]=N[C@H]1C[C@H](n2ccc(=O)[nH]c2=O)O[C@@H]1CO` [AzddUrd, 3′-azido-2′,3′-dideoxyuridine], the IC50 in [1] was 423 µM; in assay [2] it was not below 1000 µM; in assay [3], more than 1000 µM; in assay [4] it was more than 1000 µM; in assay [5], more than 1000 µM; in [6] it was 364 µM. In addition, the EC50 in [7] is 15 µM. Besides, the “MSV-induced cyto-pathogenicity S.I.” value in [7] is given as more than 27.
In the case of `O=c1ccn([C@H]2CC[C@@H](CO)O2)c(=O)[nH]1` [ddUrd, 2′-3′-dideoxyuridine], the IC50 in assay [1] is more than 1000 µM; in [2], more than 1000 µM; in [3], more than 1000 µM; in [4] it was more than 1000 µM; in assay [5], more than 1000 µM; in assay [6], not below 1000 µM. In assay [7], the EC50 was more than 400 µM.
Turning to `O=c1ccn([C@H]2C[C@H](F)[C@@H](CO)O2)c(=O)[nH]1` [FddUrd, 3′-fluoro-2′,3′-dideoxyuridine], the IC50 in assay [1] was 14 µM; in assay [2], more than 1000 µM; in assay [3], more than 1000 µM; in assay [4], more than 1000 µM; in assay [5] it was not below 1000 µM; in [6], more than 1000 µM. Further, the IC50 in [8] (the other cell lines (all but CEM)) is on record as more than 1000 µM. Besides, the “fold higher susceptibility of CEM cells to the cytostatic action than the other cell lines” value in assay [8] (CEM versus other cell lines) is on record as 70 fold. Also, in assay [7], the EC50 is more than 400 µM.
For `CCc1cn([C@H]2CC[C@@H](CO)O2)c(=O)[nH]c1=O` [ddEtUrd, 2′,3′-Dideoxy-5-ethyluridine], the IC50 in assay [1] is more than 1000 µM; in assay [2] it was more than 1000 µM; in assay [3], more than 1000 µM; in assay [4] it was more than 1000 µM; in assay [5], more than 1000 µM; in [6], 326 µM. Besides, the EC50 in assay [7] is more than 400 µM.
